From patent publication US20060234990A1, “Compositions of boswellic acids derived from Boswellia serrata gum resin, for treating lymphoproliferative and autoimmune conditions” (SAMI LABS LTD., priority 2000, published 2006)

Tests used:
[1] = test system: HL-60 cells; experiment: RNA synthesis ([3H]uridine incorporation) in HL-60 cells; format: cell-based; settings: Homo sapiens; cultured HL-60 cells incubated for 2 hours; read-out: 50% inhibitory activity on the incorporation of [3H]-uridine
Text: (§1) FIGS. 1, 2, and 3 show the inhibitory effects of compounds I-IV on the DNA, RNA and protein synthesis of HL-60 cells, respectively (in FIG. 1-3, lines 1, 2, 3 and 4 refer to the data of compounds I, II, III and IV, respectively). Tables 1 and 2 show the inhibitory effect of a “total organic acids” extract of the exudate of Boswellia serrata on DNA, RNA and protein synthesis or growth in HL-60 cells. […] The initial rates of incorporation of [^3H]-thymidine, [^3H]-uridine and [^3H]-leucine into trichloroacetic acid (TCA)-insoluble material were utilized to estimate the rates of DNA, RNA, and protein synthesis, respectively, in HL-60 cells. […] the inhibitory effects of compounds I-IV and the alcoholic extract on DNA. RNA and protein synthesis of HL-60 cells were in a dose-dependent manner. […] 0.9 and 0.6 μM, respectively, the incorporation of [3H]-uridine at concentrations of 7.1, 2.3. 2.2 and 0.5 μM, respectively, and the incorporation of [3H]-leucine into protein at concentrations of 6.3, 5.4, 5.1 and 4.1 μM, respectively, in cultured HL-60 cells incubated for 2 hours.
(§2) Various concentrations of the Boswellia serrata extract, as indicated above, were added to 1 mL of HL-60 cells suspended in RPMI medium. [^3H]thymidine (50 μCi/μmol: […]), [^3H]uridine (55 μCi/μmol; 5 μL), [^3H]leucine (200 μCi/μmol: 10 μL), were added to the cell suspension and incubated at 37° C. for 120 min. Reactions were terminated by addition of 3 mL of cold PBS, and the rates of DNA. RNA, and protein synthesis were determined.

[2] = test system: HL-60 cells; experiment: DNA synthesis ([3H]thymidine incorporation) in HL-60 cells; format: cell-based; settings: Homo sapiens; cultured HL-60 cells incubated for 2 hours; read-out: 50% inhibitory activity on the incorporation of [3H]-thymidine into DNA
Text: as §1, §2
[^3H]Thymidine (3 μL; 50 μCi/μmol), vehicle or various concentrations of BSE in vehicle were added to 1 mL of HL-60 cells (5×10^5 cells/mL) in culture, and the cultures were incubated at 37° C. for 120 min. Data are expressed as the mean±SE calculated from triplicate studies. Data in parentheses are the percent inhibition of [^3H]thymidine incorporation into the DNA of HL-60 cells.

[3] = test system: HL-60 cells; experiment: Protein synthesis ([3H]leucine incorporation) in HL-60 cells; format: cell-based; settings: Homo sapiens; cultured HL-60 cells incubated for 2 hours; read-out: 50% inhibitory activity on the incorporation of [3H]-leucine into protein
Text: as §1, §2

[4] = Cell viability of HL-60 cells, trypan blue exclusion method; format: cell-based; settings: human, 4 days incubation
Experimental: (§3) The effect of compound IV on cellular growth of HL-60 cells was tested. […] In order to test whether this growth was the result of cell cytotoxicity, the effects of this compound on cell viability were examined after 4 days incubation using the trypan blue exclusion method. The cells viability at concentrations of 0, 1, 4, 16 μM were 97.0, 96.8, 96.5, or 96.7%, respectively.

[5] = test system: HL-60 cells; experiment: Cellular growth of HL-60 cells in culture; format: cell-based; settings: Homo sapiens, HL-60, 96 h, 37° C., 4 days
Experimental: as §3
Various concentrations of BSE, as indicated above, were added to the HL-60 cell cultures. These cultures were counted daily using a hemacytometer under a microscope with 10× magnification every 24 hours. Data are expressed as the mean=SE calculated from triplicate studies. Data in parentheses are the percent inhibition of cell growth.

[6] = target: T1, human leukocyte elastase (Homo sapiens, UniProt P08246); settings: in vitro; Safayhi et al (1997); cited from earlier work
T1 sequence (P08246 30-267): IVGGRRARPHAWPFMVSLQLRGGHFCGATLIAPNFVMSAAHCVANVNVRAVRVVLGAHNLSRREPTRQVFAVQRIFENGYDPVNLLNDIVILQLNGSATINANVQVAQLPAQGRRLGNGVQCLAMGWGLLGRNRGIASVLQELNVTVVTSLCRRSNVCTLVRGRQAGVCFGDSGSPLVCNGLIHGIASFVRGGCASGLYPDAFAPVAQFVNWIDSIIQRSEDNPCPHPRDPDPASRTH

[7] = test system: HL-60 cells; experiment: Reversibility of DNA synthesis inhibition after preincubation and washing; format: cell-based, human; settings: preincubated at 2 and 8 μM for 30 min at 37° C., washed with PBS
Experimental: In this experiment HL-60 cells were preincubated with compound IV at 2 and 8 μM for 30 min at 37° C., washed with phosphate buffer saline and [3H]-thymidine was added to the culture. At desired times, the reactions were terminated and the rates of DNA synthesis were determined.

CC1CCC2(C)CCC3(C)C(=CC(=O)C4(C)C3CCC3C(C)(C(=O)O)C(O)CCC34C)C2C1C (stereo not drawn) [III, 11-keto-β-Boswellic Acid]
IC50 [1]: 2.2 µM
IC50 [2]: 0.9 µM
IC50 [3]: 5.1 µM

CC1CCC2(C)CCC3(C)C(=CCC4(C)C3CCC3C(C)(C(=O)O)C(O)CCC34C)C2C1C (stereo not drawn) [I, β-Boswellic Acid]
IC50 [1]: 7.1 µM
IC50 [2]: 3.7 µM
IC50 [3]: 6.3 µM

CC(=O)OC1CCC2(C)C(CCC3C4(C)CCC5(C)CCC(C)C(C)C5C4=CCC32C)C1(C)C(=O)O (stereo not drawn) [II, Acetyl-β-Boswellic Acid]
IC50 [1]: 2.3 µM
IC50 [2]: 1.4 µM
IC50 [3]: 5.4 µM

CC(=O)OC1CCC2(C)C(CCC3C4(C)CCC5(C)CCC(C)C(C)C5C4=CC(=O)C32C)C1(C)C(=O)O (stereo not drawn) [IV, Acetyl-11-keto-β-Boswellic Acid]
viability at 4 days, 1 µM ([4]; 1 μM): 96.8%
viability at 4 days, 4 µM ([4]; 4 μM): 96.5%
viability at 4 days, 16 µM ([4]; 16 μM): 96.7%
IC50 [1]: 0.5 µM
IC50 [2]: 0.6 µM
IC50 [3]: 4.1 µM
inhibition at 1 µM ([5]; 1 μM): 54.5%
inhibition at 4 µM ([5]; 4 μM): 71.8%
inhibition at 16 µM ([5]; 16 μM): 98.6%
IC50 [6]: ~15 µM
inhibitory action on DNA synthesis after washing [7]: irreversible
